Values quoted from earlier work in patent EP3357492B1, “MULTILAYER TABLET FOR ADMINISTRATION OF MAGNESIUM” (S.I.I.T. S.r.l.-Servizio Internazionale Imballaggi …, priority 2017, dated 2018).

Conditions: not given

| Molecule | pH (1% in water solution) |
| --- | --- |
| Gluconate | 7 |
| Lactate | 7 |
| O=C([O-])[O-].[Na+].[Na+] [Carbonate] | 10 |
| N[C@@H](CC(=O)O)C(=O)[O-].N[C@@H](CC(=O)O)C(=O)[O-].O.O.O.O.[Mg+2] [Aspartate 4 hydrate] | 7 |
| CCC(=O)O [Propionate] | 10 |
| [O]=[Mg] [Oxide, Magnesium oxide] | 10.5 |
| Fumarate | 7 |
| O.O.O.O.O.O.[Cl-].[Cl-].[Mg+2] [Chloride 6 hydrate] | 5 |
| O=C([O-])CC(O)(CC(=O)[O-])C(=O)[O-].[K+].[K+].[K+] [Potassium citrate] | 7.5 |
| O.O.O.O.O.O=P([O-])([O-])[O-].O=P([O-])([O-])[O-].[Mg+2].[Mg+2].[Mg+2] [Phosphate 5 hydrate] | 8 |
| O=C(O)CC(O)(CC(=O)O)C(=O)O [Citrate] | 4 |
| O=C1CC[C@@H](C(=O)[O-])N1.O=C1CC[C@@H](C(=O)[O-])N1.[Mg+2] [Pidolate] | 6 |
| O=C([O-])CC(O)(CC(=O)[O-])C(=O)[O-].O=C([O-])CC(O)(CC(=O)[O-])C(=O)[O-].[Mg+2].[Mg+2].[Mg+2] [Dicitrate] | 9 |
| Glycerophosphate | 7 |
| O.O.O=C1O[C@H]([C@@H](O)CO)C([O-])=C1O.O=C1O[C@H]([C@@H](O)CO)C([O-])=C1O.[Mg+2] [Ascorbate 2 hydrate] | 7 |
| [Mg+2].[OH-].[OH-] [Hydroxide, Magnesium hydroxide] | 10.5 |
| Phosphate | 6 |

Conditions: in water

| Molecule | Solubility (g/100 g water) |
| --- | --- |
| [O]=[Mg] [Oxide, Magnesium oxide] | <1 g/100 g water |
| Glycerophosphate | 4 g/100 g water |
| Phosphate | 40-50 g/100 g water |
